According to patent publication US20230416227A1, “PLASMA KALLIKREIN INHIBITORS” (Merck Sharp & Dohme LLC, priority 2020, published 2023):

Assays:
human factor XIa = human factor XIa (Homo sapiens, UniProt P03951); assay: Factor XIa Assay; type: biochemical; details: human factor XIa 0.04 nM, substrate GPR-AFC, 30 min pre-incubation at 25° C., pH 7.4; read-out: FXIa IC50
Experimental: The effectiveness of a compound of the present invention as an inhibitor of Coagulation factor XIa can be determined using a relevant purified serine protease, and an appropriate synthetic substrate. The rate of hydrolysis of the chromogenic or fluorogenic substrate by the relevant serine protease was measured both in the absence and presence of compounds of the present invention. Assays were conducted at rt or at 37° C. […] A decrease in the rate of fluorescence change in the presence of inhibitor is indicative of enzyme inhibition. Such methods are known to one skilled in the art. The results of this assay are expressed as the half-maximal inhibitory concentrations (IC50), or the inhibitory constant, Ki.
Compounds were pre-incubated for 30 min at 25° C. with human (0.04 nM) factor XIa in 50 mM HEPES buffer with 150 mM sodium chloride, 5 mM calcium chloride, 0.1% PEG 8000, pH 7.4. factor XIa enzymatic activity was determined by addition of the substrate glycine-proline-arginine-7-amido-4-trifluoromethylcoumarin (GPR-AFC) and measurement of the fluorescence at 400/505 nm after a 60 min incubation at 25° C. The % inhibition for each data point was calculated from the data and analyzed using the log (inhibitor) vs. response four parameters equation to determine the half-maximal inhibitory concentrations (IC50). The IC50 were converted to equilibrium inhibitory constants (Ki) using the Cheng-Prusoff equation.

Human plasma kallikrein = biological target: T1, Human plasma kallikrein (Homo sapiens, UniProt P03952); assay: Plasma Kallikrein Assay; type: biochemical; details: purified Human plasma kallikrein 0.5 nM, substrate Acetyl-K-P-R-AFC, pH 7.4
T1 construct: yields a heavy chain (371 amino acids) and a light chain (248 amino acids); purchased Enzyme Research Laboratories
T1 sequence (P03952 391-638 limits assumed): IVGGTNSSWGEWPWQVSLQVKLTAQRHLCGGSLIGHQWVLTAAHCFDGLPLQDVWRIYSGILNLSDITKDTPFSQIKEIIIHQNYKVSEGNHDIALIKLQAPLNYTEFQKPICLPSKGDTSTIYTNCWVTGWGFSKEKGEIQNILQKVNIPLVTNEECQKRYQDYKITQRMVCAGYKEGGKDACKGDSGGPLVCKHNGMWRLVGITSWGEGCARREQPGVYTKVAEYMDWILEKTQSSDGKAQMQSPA
T1 sequence (P03952 20-390 partner limits assumed): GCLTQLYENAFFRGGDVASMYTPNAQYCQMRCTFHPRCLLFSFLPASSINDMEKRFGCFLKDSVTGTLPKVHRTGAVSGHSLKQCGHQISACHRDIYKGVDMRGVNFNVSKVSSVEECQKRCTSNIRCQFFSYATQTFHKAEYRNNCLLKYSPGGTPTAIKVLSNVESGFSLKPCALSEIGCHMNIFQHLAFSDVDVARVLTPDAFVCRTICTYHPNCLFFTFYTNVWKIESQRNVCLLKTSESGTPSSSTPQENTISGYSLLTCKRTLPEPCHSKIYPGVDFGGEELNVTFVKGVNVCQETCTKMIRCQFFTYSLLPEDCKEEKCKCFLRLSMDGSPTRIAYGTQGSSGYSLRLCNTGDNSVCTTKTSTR

human factor XIa, sequence (P03951 388-625 limits assumed): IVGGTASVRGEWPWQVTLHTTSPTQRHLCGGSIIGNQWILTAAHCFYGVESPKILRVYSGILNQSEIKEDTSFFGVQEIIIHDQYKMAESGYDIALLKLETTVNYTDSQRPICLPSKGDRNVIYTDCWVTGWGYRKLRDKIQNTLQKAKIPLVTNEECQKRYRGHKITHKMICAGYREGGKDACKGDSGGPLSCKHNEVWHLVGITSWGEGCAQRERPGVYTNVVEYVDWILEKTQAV
human factor XIa, sequence (P03951 19-387 partner limits assumed): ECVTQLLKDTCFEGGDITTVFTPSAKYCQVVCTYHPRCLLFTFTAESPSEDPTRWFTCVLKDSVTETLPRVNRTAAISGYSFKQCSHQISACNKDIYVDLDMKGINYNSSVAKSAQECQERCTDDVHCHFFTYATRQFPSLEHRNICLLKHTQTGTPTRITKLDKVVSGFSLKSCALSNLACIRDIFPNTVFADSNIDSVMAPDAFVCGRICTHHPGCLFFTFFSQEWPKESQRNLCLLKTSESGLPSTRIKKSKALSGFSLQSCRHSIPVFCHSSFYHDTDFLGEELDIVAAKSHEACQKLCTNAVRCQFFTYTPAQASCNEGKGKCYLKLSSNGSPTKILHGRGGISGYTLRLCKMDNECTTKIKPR

SMILES | IC50 (human factor XIa) [nM] | IC50 (Human plasma kallikrein) [nM]
C[C@@H](O)CNCC1CCCN1c1ncc(Cn2cc(NC(=O)c3cncc(-c4c(C(F)F)ccc(Cl)c4F)n3)cn2)cn1 (stereo partly drawn) [Example 154, 6-(3-Chloro-6-(difluoromethyl)-2-fluorophenyl)-N-(1-((2-(2-((((R)-2-hydroxypropyl)amino)methyl)pyrrolidin-1-yl)pyrimidin-5-yl)methyl)-1H-pyrazol-4-yl)pyrazine-2-carboxamide] | 4130 | 1.2
COc1ccc(-n2cnnn2)c(-c2cncc(C(=O)Nc3cnn(C(C)c4cnc(N5CCC5)nc4)c3)n2)c1 (single isomer, unassigned) [Example 60, (S or R)-N-(1-(1-(2-(Azetidin-1-yl)pyrimidin-5-yl)ethyl)-1H-pyrazol-4-yl)-6-(5-methoxy-2-(1H-tetrazol-1-yl)phenyl)pyrazine-2-carboxamide] | 730 | 47
C[C@H](c1cnc(N2CCC2)nc1)n1cc(NC(=O)c2cncc(-c3c(C(F)(F)F)ccc(Cl)c3F)n2)cn1 (single isomer, unassigned) [Example 54] | 3030 | 25.7
CC(c1cnc(N2CC3(CC3)C2)nc1)n1cc(NC(=O)c2cncc(-c3c(C(F)F)ccc(Cl)c3F)n2)cn1 (single isomer, unassigned) [Example 93, (R or S)-N-(1-(1-(2-(5-Azaspiro[2.3]hexan-5-yl)pyrimidin-5-yl)ethyl)-1H-pyrazol-4-yl)-6-(3-chloro-6-(difluoromethyl)-2-fluorophenyl)pyrazine-2-carboxamide] | 4310 | 19.9
CC(c1cnc(N2CCC2)nc1)n1cc(NC(=O)c2cncc(-c3cc(Cl)ccc3-n3cnnn3)n2)cn1 (single isomer, unassigned) [Example 58, (S or R)-N-(1-(1-(2-(Azetidin-1-yl)pyrimidin-5-yl)ethyl)-1H-pyrazol-4-yl)-6-(5-chloro-2-(1H-tetrazol-1-yl)phenyl)pyrazine-2-carboxamide] | 413 | 8.1
Cc1nc(C(C)n2cc(NC(=O)c3cncc(-c4c(C(F)F)ccc(Cl)c4F)n3)cn2)cnc1N1CCC1 (single isomer, unassigned) [Example 40, (R or S)-N-(1-(1-(5-(azetidin-1-yl)-6-methylpyrazin-2-yl)ethyl)-1H-pyrazol-4-yl)-6-(3-chloro-6-(difluoromethyl)-2-fluorophenyl)pyrazine-2-carboxamide] | 794 | 3.7
COc1ccc(-n2cnnn2)c(-c2cncc(C(=O)Nc3cnn(C(C)c4cnc(N5CCC5)nc4)c3)n2)c1 (single isomer, unassigned) [Example 61, (R or S)-N-(1-(1-(2-(Azetidin-1-yl)pyrimidin-5-yl)ethyl)-1H-pyrazol-4-yl)-6-(5-methoxy-2-(1H-tetrazol-1-yl)phenyl)pyrazine-2-carboxamide] | 662 | 14
CC(c1cnc(N2CCC2)nc1)n1cc(NC(=O)c2cncc(-c3c(OC(F)F)ccc(Cl)c3F)n2)cn1 (single isomer, unassigned) [Example 57, (S or R)-N-(1-(1-(2-(Azetidin-1-yl)pyrimidin-5-yl)ethyl)-1H-pyrazol-4-yl)-6-(3-chloro-6-(difluoromethoxy)-2-fluorophenyl)pyrazine-2-carboxamide] | 1170 | 6.8
Cc1nc(N2CCC2)ncc1[C@H](C)n1cc(NC(=O)c2cncc(-c3c(C(F)F)ccc(Cl)c3F)n2)cn1 (single isomer, unassigned) [Example 69] | 8070 | 64.3
NC(=O)c1cc(N2CCC2)ncc1Cn1cc(NC(=O)c2cncc(-c3c(C(F)F)ccc(Cl)c3F)n2)cn1 [Example 206, N-(1-((6-(Azetidin-1-yl)-4-carbamoylpyridin-3-yl)methyl)-1H-pyrazol-4-yl)-6-(3-chloro-6-(difluoromethyl)-2-fluorophenvl)pyrazine-2-carboxamide] | 820 | 24.4
O=C(Nc1cnn(Cc2ccc(N3CCC(O)C3)nc2)c1)c1cncc(-c2c(C(F)F)ccc(Cl)c2F)n1 (centres unmarked) [Example 123, 6-(3-Chloro-6-(difluoromethyl)-2-fluorophenyl)-N-(1-((6-(3-hydroxypyrrolidin-1-yl)pyridin-3-yl)methyl)-1H-pyrazol-4-yl)pyrazine-2-carboxamide] | 3330 | 27.3
C[C@@H](F)CN(C)CC1CCCN1c1ncc(Cn2cc(NC(=O)c3cncc(-c4c(C(F)F)ccc(Cl)c4F)n3)cn2)cn1 (stereo partly drawn) [Example 151, 6-(3-Chloro-6-(difluoromethyl)-2-fluorophenyl)-N-(1-((2-(2-((((R)-2-fluoropropyl)(methyl)amino)methyl)pyrrolidin-1-yl)pyrimidin-5-yl)methyl)-1H-pyrazol-4-yl)pyrazine-2-carboxamide] | 7720 | 1
O=C(Nc1cnn(Cc2cnc(N3CC[C@@H]3CO)nc2)c1)c1cncc(-c2c(C(F)F)ccc(Cl)c2F)n1 [Example 111, (R)-6-(3-Chloro-6-(difluoromethyl)-2-fluorophenyl)-N-(1-((2-(2-(hydroxymethyl)azetidin-1-yl)pyrimidin-5-yl)methyl)-1H-pyrazol-4-yl)pyrazine-2-carboxamide] | 3000 | 46.5
C[C@H](F)CN(C)CC1CCCN1c1ncc(Cn2cc(NC(=O)c3cncc(-c4c(C(F)F)ccc(Cl)c4F)n3)cn2)cn1 (stereo partly drawn) [Example 147, 6-(3-Chloro-6-(difluoromethyl)-2-fluorophenyl)-N-(1-((2-(2-((((S)-2-fluoropropyl)(methyl)amino)methyl)pyrrolidin-1-yl)pyrimidin-5-yl)methyl)-1H-pyrazol-4-yl)pyrazine-2-carboxamide] | 5500 | 0.6

The next lines start with the values.

IC50 (human factor XIa) [nM] | IC50 (Human plasma kallikrein) [nM] | SMILES
7240 | 11.3 | C[C@H](O)[C@H]1[C@H]2C[C@H]2CN1c1ncc(Cn2cc(NC(=O)c3cncc(-c4c(C(F)F)ccc(Cl)c4F)n3)cn2)cn1 [Example 84, 6-(3-Chloro-6-(difluoromethyl)-2-fluorophenyl)-N-(1-((2-((1S,2R,5R)-2-((S)-1-hydroxyethyl)-3-azabicyclo[3.1.0]hexan-3-yl)pyrimidin-5-yl)methyl)-1H-pyrazol-4-yl)pyrazine-2-carboxamide]
2720 | 27 | CC(c1cnc(N2CC3CC3C2)nc1)n1cc(NC(=O)c2cncc(-c3c(C(F)F)ccc(Cl)c3F)n2)cn1 (single isomer, unassigned) [Example 31, N-(1-((1S or 1R)-1-(2-(3-azabicyclo[3.1.0]hexan-3-yl)pyrimidin-5-yl)ethyl)-1H-pyrazol-4-yl)-6-(3-chloro-6-(difluoromethyl)-2-fluorophenyl)pyrazine-2-carboxamide]
992 | 23.2 | O=C(Nc1cnn(C(CO)c2cnc(N3CC4CC4C3)nc2)c1)c1cncc(-c2c(C(F)F)ccc(Cl)c2F)n1 (single isomer, unassigned) [Example 45, N-(1-((R or S)-1-(2-(3-Azabicyclo[3.1.0]hexan-3-yl)pyrimidin-5-yl)-2-hydroxyethyl)-1H-pyrazol-4-yl)-6-(3-chloro-6-(difluoromethyl)-2-fluorophenyl)pyrazine-2-carboxamide]
1290 | 0.2 | CN(CC1CCCN1c1ncc(Cn2cc(NC(=O)c3cncc(-c4c(C(F)F)ccc(Cl)c4F)n3)cn2)cn1)CC1(O)CC1 (single isomer, unassigned) [Example 140, (S or R)-6-(3-Chloro-6-(difluoromethyl)-2-fluorophenyl)-N-(1-((2-(2-((((1-hydroxycyclopropyl)methyl)(methyl)amino)methyl)pyrrolidin-1-yl)pyrimidin-5-yl)methyl)-1H-pyrazol-4-yl)pyrazine-2-carboxamide]
5350 | 45.9 | O=C(Nc1cnn(S(=O)(=O)c2ccc(N3CCC3)nc2)c1)c1cncc(-c2c(C(F)F)ccc(Cl)c2F)n1 [Example 26, N-(1-((6-(Azetidin-1-yl)pyridin-3-yl)sulfonyl)-1H-pyrazol-4-yl)-6-(3-chloro-6-(difluoromethyl)-2-fluorophenyl)pyrazine-2-carboxamide]
4370 | 22.3 | O=C(Nc1cnn(Cc2cnc(N3CCC3)nc2C2CC2)c1)c1cncc(-c2c(C(F)F)ccc(Cl)c2F)n1 [Example 22, N-(1-((2-(Azetidin-1-yl)-4-cyclopropylpyrimidin-5-yl)methyl)-1H-pyrazol-4-yl)-6-(3-chloro-6-(difluoromethyl)-2-fluorophenyl)pyrazine-2-carboxamide]
6090 | 41.3 | O=C(Nc1cnn(Cc2cnc(N3CCC3)nc2)n1)c1cncc(-c2c(C(F)F)ccc(Cl)c2F)n1 [Example 25, N-(2-((2-(Azetidin-1-yl)pyrimidin-5-yl)methyl)-2H-1,2,3-triazol-4-yl)-6-(3-chloro-6-(difluoromethyl)-2-fluorophenyl)pyrazine-2-carboxamide]
647 | 5.2 | Cc1nc(Cn2cc(NC(=O)c3cncc(-c4c(C(F)F)ccc(Cl)c4F)n3)cn2)cnc1N1CCC1 [Example 10, N-(1-((5-(Azetidin-1-yl)-6-methylpyrazin-2-yl)methyl)-1H-pyrazol-4-yl)-6-(3-chloro-6-(difluoromethyl)-2-fluorophenyl)pyrazine-2-carboxamide]
